Assay results taken from patent US11919887B2, “Substituted tetrahydrofurans as modulators of sodium channels” (Vertex Pharmaceuticals Incorporated, priority 2019, dated 2024).

These molecules were tested against human Nav 1.8 (Homo sapiens, UniProt Q9Y5Y9) (assay: E-VIPR assay detecting and measuring Nav inhibition (HEK cells expressing truncated human Nav 1.8)). Details: in the Absence of Human Serum in the E-VIPR Assay; read-out: IC50.
Assay type: cell-based
Excerpt: Sodium ion channels are voltage-dependent proteins that can be activated by inducing membrane voltage changes by applying electric fields. The electrical stimulation instrument and methods of use, referred to as E-VIPR, are described in International Publication No. WO 2002/008748 A3 and C.-J. Huang et al. Characterization of voltage-gated sodium channel blockers by electrical stimulation and fluorescence detection of membrane potential, 24 Nature Biotech. 439-46 (2006), both of which are incorporated by reference in their entirety. The instrument comprises a microtiter plate handler, an optical system for exciting the coumarin dye while simultaneously recording the coumarin and oxonol emissions, a waveform generator, a current- or voltage-controlled amplifier, and parallel electrode pairs that are inserted into assay plate wells. Under integrated computer control, this instrument passes user-programmed electrical stimulus protocols to cells within the wells of the microtiter plate.
16-20 hours prior to running the assay on E-VIPR, HEK cells expressing a truncated form of human Nav 1.8 with full channel activity were seeded into microtiter 384-well plates, pre-coated with matrigel, at a density of 25,000 cells per well. 2.5-5% KIR2.1 Bacmam virus was added to the final cell suspension before seeding into cell plates. HEK cells were grown in Dulbecco's Modified Eagle's Medium (DMEM) supplemented with 10% FBS (Fetal Bovine Serum, qualified; Sigma #F4135), 1% NEAA (Non-Essential Amino Acids, Gibco #11140), 1% HEPES (Gibco #15630), 1% Pen-Strep (Penicillin-Streptomycin; Gibco #15140) and 5 μg/ml Blasticidin (Gibco #R210-01). Cells were expanded in vented cap cell culture flasks, with 90-95% humidity and 5% CO2.
Human Serum (HS, Millipore #S1P1-01KL, or Sigma SLBR5469V and SLBR5470V as a 50%/50% mixture, for 25% assay final concentration)
Bath1 Buffer: • Sodium Chloride 160 mM (9.35 g/L), Potassium Chloride, 4.5 mM (0.335 g/L), Glucose 10 mM (1.8 g/L), Magnesium Chloride (Anhydrous) 1 mM (0.095 g/L), Calcium Chloride 2 mM (0.222 g/L), HEPES 10 mM (2.38 g/L) in water.
Na/TMA Cl Bath1 Buffer: • Sodium Chloride 96 mM (5.61 g/L), Potassium Chloride 4.5 mM (0.335 g/L), Tetramethylammonium (TMA)-Cl 64 mM (7.01 g/L), Glucose 10 mM (1.8 g/L), Magnesium Chloride (Anhydrous) 1 mM (0.095 g/L), Calcium Chloride 2 mM (0.222 g/L) HEPES 10 mM (2.38 g/L) in water.
Hexyl Dye Solution (2× concentration): • Bath1 Buffer containing 0.5% β-cyclodextrin (made fresh prior to each use, Sigma #C4767), 8 μM CC2-DMPE and 2 μM DiSBAC6(3). The solution was made by adding 10% Pluronic F127 stock equal to combined volumes of CC2-DMPE and DiSBAC6(3). The order of preparation was first mix Pluronic and CC2-DMPE, then add DiSBAC6(3), then while vortexing add Bath1/β-Cyclodextrin.
Compound Loading Buffer (2×concentration): Na/TMA Cl Bath1 Buffer containing HS (omitted in experiments run in the absence of human serum (HS)) 50%, VABSC-1 1 mM, BSA 0.2 mg/ml (in Bath-1), KCl 9 mM, DMSO 0.75%.
Assay Protocol (7 Key Steps): • 1) To reach the final concentration in each well, 400 nL of each compound was pre-spotted (in neat DMSO) into polypropylene compound plates at 250×desired final concentration from an intermediate stock concentration of 0.075 mM, in an 11 point dose response, 3-fold dilution, resulting in a top dose of 300 nM final concentration in the cell plate. Vehicle control (neat DMSO), and positive control (an established Nav1.8 inhibitor, 25 μM final in assay in DMSO) were added manually to the outermost columns of each plate respectively. The compound plate was backfilled with 45 μL per well of Compound Loading Buffer resulting in a 250 fold dilution of compound following a 1:1 transfer of compound into the cell plate (see Step 6). Final DMSO concentration for all wells in the assay was 0.625% (0.75% DMSO was supplemented to the Compound Loading Buffer for a final DMSO concentration of 0.625%). […]

human Nav 1.8, sequence (Q9Y5Y9 whole entry, looked up, the tested form may be a part): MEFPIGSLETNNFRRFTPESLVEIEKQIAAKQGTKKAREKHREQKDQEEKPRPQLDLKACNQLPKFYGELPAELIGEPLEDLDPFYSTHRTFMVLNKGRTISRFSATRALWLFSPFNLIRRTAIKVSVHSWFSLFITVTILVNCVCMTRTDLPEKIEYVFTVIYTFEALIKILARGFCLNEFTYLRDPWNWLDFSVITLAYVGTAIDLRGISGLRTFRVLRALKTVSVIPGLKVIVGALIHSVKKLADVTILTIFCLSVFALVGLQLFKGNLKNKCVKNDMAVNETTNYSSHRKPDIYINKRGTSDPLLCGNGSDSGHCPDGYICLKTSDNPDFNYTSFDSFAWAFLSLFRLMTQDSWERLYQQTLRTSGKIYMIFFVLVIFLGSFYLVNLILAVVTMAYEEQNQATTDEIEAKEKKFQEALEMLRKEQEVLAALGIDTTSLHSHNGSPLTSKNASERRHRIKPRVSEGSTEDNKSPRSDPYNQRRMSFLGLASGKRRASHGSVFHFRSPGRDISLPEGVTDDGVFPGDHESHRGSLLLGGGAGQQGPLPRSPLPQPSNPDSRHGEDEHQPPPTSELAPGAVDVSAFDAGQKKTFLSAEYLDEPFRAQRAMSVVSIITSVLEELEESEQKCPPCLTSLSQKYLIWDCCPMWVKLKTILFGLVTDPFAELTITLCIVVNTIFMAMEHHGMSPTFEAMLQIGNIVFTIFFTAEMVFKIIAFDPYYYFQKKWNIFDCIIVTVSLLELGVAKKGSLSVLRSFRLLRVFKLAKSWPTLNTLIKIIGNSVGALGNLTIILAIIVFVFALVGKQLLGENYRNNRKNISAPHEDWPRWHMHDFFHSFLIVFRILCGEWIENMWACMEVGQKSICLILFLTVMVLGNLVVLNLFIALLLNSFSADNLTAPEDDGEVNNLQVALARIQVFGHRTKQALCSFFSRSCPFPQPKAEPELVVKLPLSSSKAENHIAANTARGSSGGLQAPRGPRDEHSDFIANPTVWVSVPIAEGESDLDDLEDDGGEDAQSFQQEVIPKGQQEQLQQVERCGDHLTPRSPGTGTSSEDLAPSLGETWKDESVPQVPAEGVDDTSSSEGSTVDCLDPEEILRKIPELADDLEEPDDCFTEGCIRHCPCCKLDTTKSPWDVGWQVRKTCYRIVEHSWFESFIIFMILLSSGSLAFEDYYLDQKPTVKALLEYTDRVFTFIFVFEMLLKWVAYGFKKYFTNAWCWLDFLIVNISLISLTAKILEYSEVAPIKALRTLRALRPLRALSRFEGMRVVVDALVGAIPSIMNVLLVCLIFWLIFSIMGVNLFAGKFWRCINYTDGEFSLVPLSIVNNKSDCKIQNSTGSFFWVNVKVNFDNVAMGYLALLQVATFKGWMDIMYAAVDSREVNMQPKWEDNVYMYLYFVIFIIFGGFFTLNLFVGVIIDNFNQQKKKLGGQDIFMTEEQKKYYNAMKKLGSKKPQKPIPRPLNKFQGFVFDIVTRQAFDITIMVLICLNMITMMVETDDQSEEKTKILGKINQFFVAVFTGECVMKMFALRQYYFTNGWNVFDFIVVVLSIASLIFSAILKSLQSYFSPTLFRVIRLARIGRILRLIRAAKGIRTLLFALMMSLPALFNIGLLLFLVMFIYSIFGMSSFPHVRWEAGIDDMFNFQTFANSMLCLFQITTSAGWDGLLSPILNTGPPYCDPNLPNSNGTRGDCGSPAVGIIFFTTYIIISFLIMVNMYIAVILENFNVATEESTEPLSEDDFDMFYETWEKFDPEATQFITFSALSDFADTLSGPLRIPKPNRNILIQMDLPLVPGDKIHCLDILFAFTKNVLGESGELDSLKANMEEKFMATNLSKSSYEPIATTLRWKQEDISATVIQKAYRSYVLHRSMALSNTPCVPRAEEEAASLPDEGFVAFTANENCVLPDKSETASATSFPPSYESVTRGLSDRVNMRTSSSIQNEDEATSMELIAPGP

Question: COc1c([C@@H]2[C@@H](C(=O)Nc3ccnc(C(N)=O)c3)O[C@](C)(C(F)(F)F)[C@@H]2C)ccc(C(F)F)c1F (single isomer, unassigned) [Compound 135] was tested. Which IC50 did it give?
Answer: Its IC50 is > 1000 nM.

Question: COc1c([C@H]2[C@H](C(=O)Nc3ccnc(C(N)=O)c3)O[C@@](C)(C(F)(F)F)[C@H]2C)ccc(C(F)F)c1F (single isomer, unassigned) [Compound 136] was tested. Which IC50 did it give?
Answer: Its IC50 is < 10 nM.

Question: For COc1c([C@H]2[C@H](C(=O)Nc3ccnc(C(N)=O)c3)O[C@@](C)(C(F)(F)F)[C@H]2C)cccc1C(F)(F)F (single isomer, unassigned) [compound 42], which IC50 is on record?
Answer: The IC50 was < 10 nM.

Question: With COc1c([C@@H]2[C@@H](C(=O)Nc3ccnc(C(N)=O)c3)O[C@](C)(C(F)(F)F)[C@@H]2C)cccc1C(F)(F)F (single isomer, unassigned) [compound 43] as the molecule, how does the IC50 read?
Answer: Its IC50 is 100 to 1000 nM.

Same assay, conditions: in the Presence of Human Serum in the E-VIPR Assay; read-out: IC50

Question: Which IC50 does the source give for COc1c([C@@H]2[C@@H](C(=O)Nc3ccnc(C(N)=O)c3)O[C@](C)(C(F)(F)F)[C@@H]2C2CC2)ccc(F)c1F (single isomer, unassigned) [Compound 94] here?
Answer: The IC50 was < 10 nM.

Question: Which IC50 does the source give for COc1c([C@H]2[C@H](C(=O)Nc3ccnc(C(N)=O)c3)O[C@@](C)(C(F)(F)F)[C@H]2C2CC2)ccc(F)c1F (single isomer, unassigned) [Compound 95] here?
Answer: Its IC50 is > 1000 nM.

Question: Which IC50 does the source give for COc1c([C@@H]2[C@@H](C(=O)Nc3ccnc(C(N)=O)c3)OC(C)(C)[C@H]2C)ccc(F)c1F (single isomer, unassigned) [Compound 101] here?
Answer: The IC50 was > 1000 nM.

Question: How did the IC50 turn out when COc1c([C@@H]2[C@@H](C)C(C)(C)O[C@H]2C(=O)Nc2ccnc(C(N)=O)c2)ccc(F)c1F (single isomer, unassigned) [Compound 102] was run?
Answer: The IC50 was > 1000 nM.

Question: COc1c([C@@H]2[C@@H](C)C(C)(C)O[C@H]2C(=O)Nc2ccnc(C(N)=O)c2)ccc(F)c1F (single isomer, unassigned) [Compound 103] was tested. Which IC50 did it give?
Answer: The IC50 was > 1000 nM.

Question: Which IC50 does the source give for COc1c([C@@H]2[C@@H](C(=O)Nc3ccnc(C(N)=O)c3)OC(C)(C)[C@H]2C)ccc(F)c1F (single isomer, unassigned) [Compound 104] here?
Answer: The IC50 was > 1000 nM.

Question: For COc1c([C@H]2[C@H](C(=O)Nc3ccnc(C(N)=O)c3)OC(C)(C)[C@H]2C)ccc(F)c1F (single isomer, unassigned) [Compound 105], which IC50 is on record?
Answer: The IC50 was 10 to 100 nM.

Question: With COc1c([C@@H]2[C@@H](C(=O)Nc3ccnc(C(N)=O)c3)OC(C)(C)[C@@H]2C)ccc(F)c1F (single isomer, unassigned) [Compound 106] as the molecule, how does the IC50 read?
Answer: The IC50 was > 1000 nM.

Question: With COc1c([C@H]2C[C@@H](C(F)(F)F)O[C@@H]2C(=O)Nc2ccnc(C(N)=O)c2)ccc(F)c1C (single isomer, unassigned) [Compound 111] as the molecule, how does the IC50 read?
Answer: The IC50 was > 1000 nM.

Question: Which IC50 does the source give for COc1c([C@@H]2C[C@H](C(F)(F)F)O[C@H]2C(=O)Nc2ccnc(C(N)=O)c2)ccc(F)c1C (single isomer, unassigned) [Compound 112] here?
Answer: The IC50 was 100 to 1000 nM.

Question: C[C@@H]1[C@H](c2ccc(F)c(F)c2OC(F)F)[C@@H](C(=O)Nc2cccc(C(N)=O)c2)O[C@]1(C)C(F)(F)F (single isomer, unassigned) [compound 51] was tested. Which IC50 did it give?
Answer: Its IC50 is > 1000 nM.

Question: How did the IC50 turn out when C[C@H]1[C@@H](c2ccc(F)c(F)c2OC(F)F)[C@H](C(=O)Nc2cccc(C(N)=O)c2)O[C@@]1(C)C(F)(F)F (single isomer, unassigned) [compound 52] was run?
Answer: Its IC50 is < 10 nM.

Question: With C[C@@H]1[C@H](c2ccc(F)cc2OC(F)F)[C@@H](C(=O)Nc2ccnc(C(N)=O)c2)O[C@]1(C)C(F)(F)F (stereo in doubt) [Compound 1, rel-(2S,3R,4R,5S)-4-[[3-[2-(difluoromethoxy)-4-fluoro-phenyl]-4,5-dimethyl-5-(trifluoromethyl)tetrahydrofuran-2-carbonyl]amino]pyridine-2-carboxamide] as the molecule, how does the IC50 read?
Answer: The IC50 was 10 to 100 nM.

Question: Which IC50 does the source give for C[C@H]1[C@@H](c2ccc(F)cc2OC(F)F)[C@H](C(=O)Nc2ccnc(C(N)=O)c2)O[C@@]1(C)C(F)(F)F (stereo in doubt) [Compound 2, rel-(2R,3S,4S,5R)-4-[[3-[2-(difluoromethoxy)-4-fluoro-phenyl]-4,5-dimethyl-5-(trifluoromethyl)tetrahydrofuran-2-carbonyl]amino]pyridine-2-carboxamide] here?
Answer: The IC50 was 100 to 1000 nM.

Question: With COc1c([C@H]2C[C@@](C)(C(F)(F)F)O[C@@H]2C(=O)Nc2ccnc(C(N)=O)c2)ccc(F)c1F (stereo in doubt) [Compound 4, rel-(2S,3R,5S)-4-[[3-(3,4-difluoro-2-methoxy-phenyl)-5-methyl-5-(trifluoromethyl)tetrahydrofuran-2-carbonyl]amino]pyridine-2-carboxamide] as the molecule, how does the IC50 read?
Answer: The IC50 was > 1000 nM.

Question: COc1c([C@@H]2C[C@](C)(C(F)(F)F)O[C@H]2C(=O)Nc2ccnc(C(N)=O)c2)ccc(F)c1F (stereo in doubt) [Compound 5, rel-(2R,3S,5R)-4-[[3-(3,4-difluoro-2-methoxy-phenyl)-5-methyl-5-(trifluoromethyl)tetrahydrofuran-2-carbonyl]amino]pyridine-2-carboxamide] was tested. Which IC50 did it give?
Answer: Its IC50 is 10 to 100 nM.

Question: Which IC50 does the source give for CNC(=O)c1cc(NC(=O)[C@@H]2O[C@](C)(C(F)(F)F)[C@@H](C)[C@H]2c2ccc(F)c(F)c2OC(F)F)ccn1 (stereo in doubt) [Compound 12, rel-(2R,3S,4S,5S)-4-[[3-[2-(difluoromethoxy)-3,4-difluoro-phenyl]-4,5-dimethyl-5-(trifluoromethyl)tetrahydrofuran-2-carbonyl]amino]-N-methyl-pyridine-2-carboxamide] here?
Answer: The IC50 was > 1000 nM.

Question: CNC(=O)c1cc(NC(=O)[C@H]2O[C@@](C)(C(F)(F)F)[C@H](C)[C@@H]2c2ccc(F)c(F)c2OC(F)F)ccn1 (stereo in doubt) [Compound 13, rel-(2S,3R,4R,5R)-4-[[3-[2-(difluoromethoxy)-3,4-difluoro-phenyl]-4,5-dimethyl-5-(trifluoromethyl)tetrahydrofuran-2-carbonyl]amino]-N-methyl-pyridine-2-carboxamide] was tested. Which IC50 did it give?
Answer: The IC50 was 10 to 100 nM.

Question: For Cc1c(F)ccc([C@H]2[C@H](C(=O)Nc3ccnc(C(N)=O)c3)O[C@@](C)(C(F)(F)F)[C@H]2C)c1OC(F)F (stereo in doubt) [Compound 16, rel-(2R,3S,4S,5R)-4-[[3-[2-(difluoromethoxy)-4-fluoro-3-methyl-phenyl]-4,5-dimethyl-5-(trifluoromethyl)tetrahydrofuran-2-carbonyl]amino]pyridine-2-carboxamide], which IC50 is on record?
Answer: Its IC50 is > 1000 nM.

Question: For Cc1c(F)ccc([C@H]2[C@H](C(=O)Nc3ccnc(C(N)=O)c3)O[C@@](C)(C(F)(F)F)[C@H]2C)c1OC(F)F (stereo in doubt) [Compound 17, rel-(2R,3S,4S,5R)-4-[[3-[2-(difluoromethoxy)-4-fluoro-3-methyl-phenyl]-4,5-dimethyl-5-(trifluoromethyl)tetrahydrofuran-2-carbonyl]amino]pyridine-2-carboxamide], which IC50 is on record?
Answer: The IC50 was < 10 nM.

Question: For CC[C@@]1(C(F)(F)F)C[C@H](c2ccc(F)c(F)c2OC)[C@@H](C(=O)Nc2ccnc(C(N)=O)c2)O1 (stereo in doubt) [Compound 63, rel-(2S,3R,5S)-4-[[3-(3,4-difluoro-2-methoxy-phenyl)-5-ethyl-5-(trifluoromethyl)tetrahydrofuran-2-carbonyl]amino]pyridine-2-carboxamide], which IC50 is on record?
Answer: Its IC50 is > 1000 nM.
